# Experimental data as given in US7238689B2, “Isoxazoline derivative and herbicide comprising the same as active ingredient” (Ihara Chemical Industry Co., Ltd., priority 2001, dated 2007).
# System: Echinochloa oryzicola Vasing
# Test: Herbicidal effect by paddy field soil treatment
# Type: in vivo
# Set-up: scale not given here
# Conditions: wettable powder, active ingredient 1000 g/ha, examined at the 21st day from the treatment
# Experimental: (§1) A paddy field soil was filled in a plastic pot of 100 cm^2 and subjected to puddling. Then, seeds of Echinochloa oryzicola Vasing and Monochoria vaginalis (Murm. f.) Presl var. plantaginea (Roxb.) Solms-Laub. were sowed and water was filled in a depth of 3 cm. Next day, wettable powders produced in accordance with the Formulation 1 were diluted with water and dropped on the water surface. The application amount of each wettable powder was 1,000 g per 1 hectare in terms of the active ingredient. Then, breeding was made in a greenhouse, and the herbicidal effect of each wettable powder was examined at the 21st day from the treatment in accordance with the standard shown in Table 21.
row,SMILES,"Herbicidal effect index, Echinochloa oryzicola Vasing"
1,CCOC(=O)Cn1nc(Cl)c(CS(=O)(=O)C2=NOC(C)(C)C2)c1C(F)(F)F [3-0137],5
2,CC1(C)CC(S(=O)(=O)Cc2c(Cl)sc(Cl)c2Cl)=NO1 [2-0006],5
3,CC1(C)CC(S(=O)(=O)Cc2nc(-c3ccccc3)no2)=NO1 [9-0006],5
4,CC1(C)CC(S(=O)(=O)Cn2nnc3ccccc32)=NO1 [10-0004],5
5,Cn1nc(C(F)(F)F)c(CS(=O)(=O)C2=NOC(C)(C)C2)c1F [3-0041],5
6,Cc1c(CS(=O)(=O)C2=NOC(C)(C)C2)oc2ccccc12 [10-0017],5
7,CCOc1c(CS(=O)(=O)C2=NOC(C)(C)C2)c(C(F)(F)F)nn1-c1ccccc1 [3-0156],5
8,CC1(C)CC(S(=O)(=O)Cc2c(C(F)(F)F)nn(CC(F)F)c2Cl)=NO1 [3-0114],5
9,CC1(C)CC(S(=O)(=O)Cc2c(C(F)(F)F)nn(-c3ncccn3)c2Cl)=NO1 [3-0173],5
10,CSCn1nc(C(F)(F)F)c(CS(=O)(=O)C2=NOC(C)(C)C2)c1Cl [3-0128],5
11,Cn1c(CS(=O)(=O)C2=NOC(C)(C)C2)c(Cl)c2ccccc21 [10-0018],5
12,CC1(C)CC(S(=O)(=O)Cc2c(C(F)(F)F)n[nH]c2Cl)=NO1 [3-0034],5
13,CCOCn1nc(Cl)c(CS(=O)(=O)C2=NOC(C)(C)C2)c1C(F)(F)F [3-0121],5
14,COc1cc(OC)nc(-n2nc(C(F)(F)F)c(CS(=O)(=O)C3=NOC(C)(C)C3)c2Cl)n1 [3-0174],5
15,COCCn1nc(C(F)(F)F)c(CS(=O)(=O)C2=NOC(C)(C)C2)c1Cl [3-0124],5
16,CC1(C)CC(S(=O)(=O)Cc2c(Cl)nn(CC(N)=O)c2C(F)(F)F)=NO1 [3-0139],5
17,CC1(C)CC(S(=O)(=O)Cc2c(C(F)(F)F)nn(CC#N)c2Cl)=NO1 [3-0134],5
18,CC1(C)CC(S(=O)(=O)Cc2ccc[n+]([O-])c2)=NO1 [7-0004],5
19,CC1(C)CC(S(=O)(=O)Cc2c(C(F)(F)F)nn(-c3ccccc3)c2C(F)(F)F)=NO1 [3-0153],5
20,CNC(=O)c1c(Cl)sc(Cl)c1CS(=O)(=O)C1=NOC(C)(C)C1 [2-0012],5
21,Cn1nc(C(F)(F)F)c(CS(=O)(=O)C2=NOC(C)(C)C2)c1Oc1ccccc1 [3-0060],5
22,CC1(C)CC(S(=O)(=O)Cc2c(Cl)nn(CC(F)(F)F)c2C(F)(F)F)=NO1 [3-0117],5
23,COCCn1nc(Cl)c(CS(=O)(=O)C2=NOC(C)(C)C2)c1C(F)(F)F [3-0125],5
24,CC1(C)CC(S(=O)(=O)Cc2nc3ccccc3o2)=NO1 [10-0009],5
25,"Cc1onc(C(F)(F)F)c1CS(=O)(=O)C1=NOC(C)(C)C1 [4-0001, 5,5-dimethyl-3-(5-methyl-3-trifluoromethylisoxazol-4-ylmehtylsulfonyl)-2-isoxazoline]",5

# System: Monochoria vaginalis (Murm. f.) Presl var. plantaginea (Roxb.) Solms-Laub.
# Test: Herbicidal effect by paddy field soil treatment
# Type: in vivo
# Set-up: scale not given here
# Conditions: wettable powder, active ingredient 1000 g/ha, examined at the 21st day from the treatment
# Experimental: as §1
row,SMILES,"Herbicidal effect index, Monochoria vaginalis (Burm. F.) Presl var. plantaginea (Roxb.) Solms-Laub."
1,CCOC(=O)Cn1nc(Cl)c(CS(=O)(=O)C2=NOC(C)(C)C2)c1C(F)(F)F [3-0137],5
2,CC1(C)CC(S(=O)(=O)Cc2c(Cl)sc(Cl)c2Cl)=NO1 [2-0006],5
3,CC1(C)CC(S(=O)(=O)Cc2nc(-c3ccccc3)no2)=NO1 [9-0006],5
4,CC1(C)CC(S(=O)(=O)Cn2nnc3ccccc32)=NO1 [10-0004],5
5,Cn1nc(C(F)(F)F)c(CS(=O)(=O)C2=NOC(C)(C)C2)c1F [3-0041],5
6,Cc1c(CS(=O)(=O)C2=NOC(C)(C)C2)oc2ccccc12 [10-0017],5
7,CCOc1c(CS(=O)(=O)C2=NOC(C)(C)C2)c(C(F)(F)F)nn1-c1ccccc1 [3-0156],5
8,CC1(C)CC(S(=O)(=O)Cc2c(C(F)(F)F)nn(CC(F)F)c2Cl)=NO1 [3-0114],5
9,CC1(C)CC(S(=O)(=O)Cc2c(C(F)(F)F)nn(-c3ncccn3)c2Cl)=NO1 [3-0173],5
10,CSCn1nc(C(F)(F)F)c(CS(=O)(=O)C2=NOC(C)(C)C2)c1Cl [3-0128],5
11,Cn1c(CS(=O)(=O)C2=NOC(C)(C)C2)c(Cl)c2ccccc21 [10-0018],5
12,CC1(C)CC(S(=O)(=O)Cc2c(C(F)(F)F)n[nH]c2Cl)=NO1 [3-0034],5
13,CCOCn1nc(Cl)c(CS(=O)(=O)C2=NOC(C)(C)C2)c1C(F)(F)F [3-0121],5
14,COc1cc(OC)nc(-n2nc(C(F)(F)F)c(CS(=O)(=O)C3=NOC(C)(C)C3)c2Cl)n1 [3-0174],5
15,COCCn1nc(C(F)(F)F)c(CS(=O)(=O)C2=NOC(C)(C)C2)c1Cl [3-0124],5
16,CC1(C)CC(S(=O)(=O)Cc2c(Cl)nn(CC(N)=O)c2C(F)(F)F)=NO1 [3-0139],5
17,CC1(C)CC(S(=O)(=O)Cc2c(C(F)(F)F)nn(CC#N)c2Cl)=NO1 [3-0134],5
18,CC1(C)CC(S(=O)(=O)Cc2ccc[n+]([O-])c2)=NO1 [7-0004],5
19,CC1(C)CC(S(=O)(=O)Cc2c(C(F)(F)F)nn(-c3ccccc3)c2C(F)(F)F)=NO1 [3-0153],5
20,CNC(=O)c1c(Cl)sc(Cl)c1CS(=O)(=O)C1=NOC(C)(C)C1 [2-0012],5
21,Cn1nc(C(F)(F)F)c(CS(=O)(=O)C2=NOC(C)(C)C2)c1Oc1ccccc1 [3-0060],5
22,CC1(C)CC(S(=O)(=O)Cc2c(Cl)nn(CC(F)(F)F)c2C(F)(F)F)=NO1 [3-0117],5
23,COCCn1nc(Cl)c(CS(=O)(=O)C2=NOC(C)(C)C2)c1C(F)(F)F [3-0125],5
24,CC1(C)CC(S(=O)(=O)Cc2nc3ccccc3o2)=NO1 [10-0009],5
25,"Cc1onc(C(F)(F)F)c1CS(=O)(=O)C1=NOC(C)(C)C1 [4-0001, 5,5-dimethyl-3-(5-methyl-3-trifluoromethylisoxazol-4-ylmehtylsulfonyl)-2-isoxazoline]",5

# System: Echinochloa crus-galli (L.) Beauv. var. crusgalli
# Test: Herbicidal effect by upland field soil treatment
# Type: in vivo
# Set-up: scale not given here
# Conditions: active ingredient 1000 g/ha, examined at 21st day from treatment
# From the text: (§2) An upland field soil was filled in a plastic pot of 80 cm^2. Seeds of Echinochloa crus-galli (L.) Beauv. var. crusgalli and Setaria viridis (L.) Beauv. were sowed, followed by covering with the same soil. […] Then, breeding was made in a greenhouse, and the herbicidal effect of each wettable powder was examined at the 21st day from the treatment in accordance with the standard shown in Table 21.
row,SMILES,"herbicidal effect (index per standard of Table 21), Echinochloa curs-galli (L.) Beauv. Var. crus-galli"
1,CCOC(=O)Cn1nc(Cl)c(CS(=O)(=O)C2=NOC(C)(C)C2)c1C(F)(F)F [3-0137],5
2,CC1(C)CC(S(=O)(=O)Cc2c(Cl)sc(Cl)c2Cl)=NO1 [2-0006],5
3,CC1(C)CC(S(=O)(=O)Cc2nc(-c3ccccc3)no2)=NO1 [9-0006],5
4,CC1(C)CC(S(=O)(=O)Cn2nnc3ccccc32)=NO1 [10-0004],5
5,Cn1nc(C(F)(F)F)c(CS(=O)(=O)C2=NOC(C)(C)C2)c1F [3-0041],5
6,Cc1c(CS(=O)(=O)C2=NOC(C)(C)C2)oc2ccccc12 [10-0017],5
7,CCOc1c(CS(=O)(=O)C2=NOC(C)(C)C2)c(C(F)(F)F)nn1-c1ccccc1 [3-0156],5
8,CC1(C)CC(S(=O)(=O)Cc2c(C(F)(F)F)nn(CC(F)F)c2Cl)=NO1 [3-0114],5
9,CC1(C)CC(S(=O)(=O)Cc2c(C(F)(F)F)nn(-c3ncccn3)c2Cl)=NO1 [3-0173],5
10,CSCn1nc(C(F)(F)F)c(CS(=O)(=O)C2=NOC(C)(C)C2)c1Cl [3-0128],5
11,Cn1c(CS(=O)(=O)C2=NOC(C)(C)C2)c(Cl)c2ccccc21 [10-0018],5
12,CC1(C)CC(S(=O)(=O)Cc2c(C(F)(F)F)n[nH]c2Cl)=NO1 [3-0034],5
13,CCOCn1nc(Cl)c(CS(=O)(=O)C2=NOC(C)(C)C2)c1C(F)(F)F [3-0121],5
14,COc1cc(OC)nc(-n2nc(C(F)(F)F)c(CS(=O)(=O)C3=NOC(C)(C)C3)c2Cl)n1 [3-0174],5
15,COCCn1nc(C(F)(F)F)c(CS(=O)(=O)C2=NOC(C)(C)C2)c1Cl [3-0124],5
16,CC1(C)CC(S(=O)(=O)Cc2c(Cl)nn(CC(N)=O)c2C(F)(F)F)=NO1 [3-0139],5
17,CC1(C)CC(S(=O)(=O)Cc2c(C(F)(F)F)nn(CC#N)c2Cl)=NO1 [3-0134],5
18,CC1(C)CC(S(=O)(=O)Cc2ccc[n+]([O-])c2)=NO1 [7-0004],5
19,CC1(C)CC(S(=O)(=O)Cc2c(C(F)(F)F)nn(-c3ccccc3)c2C(F)(F)F)=NO1 [3-0153],5
20,CNC(=O)c1c(Cl)sc(Cl)c1CS(=O)(=O)C1=NOC(C)(C)C1 [2-0012],5
21,Cn1nc(C(F)(F)F)c(CS(=O)(=O)C2=NOC(C)(C)C2)c1Oc1ccccc1 [3-0060],5
22,CC1(C)CC(S(=O)(=O)Cc2c(Cl)nn(CC(F)(F)F)c2C(F)(F)F)=NO1 [3-0117],5
23,COCCn1nc(Cl)c(CS(=O)(=O)C2=NOC(C)(C)C2)c1C(F)(F)F [3-0125],5
24,CC1(C)CC(S(=O)(=O)Cc2nc3ccccc3o2)=NO1 [10-0009],5

# System: Setaria viridis (L.) Beauv.
# Test: Herbicidal effect by upland field soil treatment
# Type: in vivo
# Set-up: scale not given here
# Conditions: active ingredient 1000 g/ha, examined at 21st day from treatment
# From the text: as §2
row,SMILES,"herbicidal effect (index per standard of Table 21), Setaria viridis (L.) Beauv."
1,CCOC(=O)Cn1nc(Cl)c(CS(=O)(=O)C2=NOC(C)(C)C2)c1C(F)(F)F [3-0137],5
2,CC1(C)CC(S(=O)(=O)Cc2c(Cl)sc(Cl)c2Cl)=NO1 [2-0006],4
3,CC1(C)CC(S(=O)(=O)Cc2nc(-c3ccccc3)no2)=NO1 [9-0006],4
4,CC1(C)CC(S(=O)(=O)Cn2nnc3ccccc32)=NO1 [10-0004],5
5,Cn1nc(C(F)(F)F)c(CS(=O)(=O)C2=NOC(C)(C)C2)c1F [3-0041],5
6,Cc1c(CS(=O)(=O)C2=NOC(C)(C)C2)oc2ccccc12 [10-0017],5
7,CCOc1c(CS(=O)(=O)C2=NOC(C)(C)C2)c(C(F)(F)F)nn1-c1ccccc1 [3-0156],5
8,CC1(C)CC(S(=O)(=O)Cc2c(C(F)(F)F)nn(CC(F)F)c2Cl)=NO1 [3-0114],5
9,CC1(C)CC(S(=O)(=O)Cc2c(C(F)(F)F)nn(-c3ncccn3)c2Cl)=NO1 [3-0173],5
10,CSCn1nc(C(F)(F)F)c(CS(=O)(=O)C2=NOC(C)(C)C2)c1Cl [3-0128],5
11,Cn1c(CS(=O)(=O)C2=NOC(C)(C)C2)c(Cl)c2ccccc21 [10-0018],5
12,CC1(C)CC(S(=O)(=O)Cc2c(C(F)(F)F)n[nH]c2Cl)=NO1 [3-0034],5
13,CCOCn1nc(Cl)c(CS(=O)(=O)C2=NOC(C)(C)C2)c1C(F)(F)F [3-0121],5
14,COc1cc(OC)nc(-n2nc(C(F)(F)F)c(CS(=O)(=O)C3=NOC(C)(C)C3)c2Cl)n1 [3-0174],5
15,COCCn1nc(C(F)(F)F)c(CS(=O)(=O)C2=NOC(C)(C)C2)c1Cl [3-0124],5
16,CC1(C)CC(S(=O)(=O)Cc2c(Cl)nn(CC(N)=O)c2C(F)(F)F)=NO1 [3-0139],5
17,CC1(C)CC(S(=O)(=O)Cc2c(C(F)(F)F)nn(CC#N)c2Cl)=NO1 [3-0134],5
18,CC1(C)CC(S(=O)(=O)Cc2ccc[n+]([O-])c2)=NO1 [7-0004],4
19,CC1(C)CC(S(=O)(=O)Cc2c(C(F)(F)F)nn(-c3ccccc3)c2C(F)(F)F)=NO1 [3-0153],5
20,CNC(=O)c1c(Cl)sc(Cl)c1CS(=O)(=O)C1=NOC(C)(C)C1 [2-0012],5
21,Cn1nc(C(F)(F)F)c(CS(=O)(=O)C2=NOC(C)(C)C2)c1Oc1ccccc1 [3-0060],5
22,CC1(C)CC(S(=O)(=O)Cc2c(Cl)nn(CC(F)(F)F)c2C(F)(F)F)=NO1 [3-0117],5
23,COCCn1nc(Cl)c(CS(=O)(=O)C2=NOC(C)(C)C2)c1C(F)(F)F [3-0125],5
24,CC1(C)CC(S(=O)(=O)Cc2nc3ccccc3o2)=NO1 [10-0009],5
